Assay results reported in patent US4357341A, “Specific irreversible antagonism of histamine receptors by photoaffinity actuated compounds” (priority 1981, dated 1982).
Read-outs that look alike come from different tables or passages of the source.

Columns and labels:
[1] = system: smooth muscle of the guinea-pig vas deferens, KCl responses; experiment: KCl-induced contraction of isolated vas deferens (specificity of AAH); type: cell-based
Procedure: (§1) The tissues were washed every 15 minutes. Resting tension was 200 mg.
(§2) The effects of AAH on the response of the smooth muscle of the guinea-pig vas deferens to several agonists were examined using the following protocols.
(§3) Effect of AAH after photoactivation. While in the organ bath, one tissue of a pair was exposed to AAH for 5 minutes. The preparation was then irradiated with a tungsten-halogen projector lamp (DVY, 650 W, 3400° K., filament ca. 10 cm from the tissue) for 5 minutes. Bath temperature remained at 37° C. during irradiation. At the end of irradiation the tissues were washed twice with fresh Krebs-Kenseleit solution lacking AAH. Concentration-response determinations were begun 10 minutes after irradiation. Contralateral control tissues were irradiated in the absence of AAH and otherwise handled identically. […] Also shown is the time-course of the decline of absorbance at 266 nm. The native spectrum, consisting of a pronounced peak at 266 nm, shoulder at 286 and broad peak at 480-485 nm, was changed by photolysis in a time-dependent manner to one with several smaller peaks and troughs.
(§4) Effect of AAH without photoactivation. Two types of experiments were performed with non-irradiated AAH. In the first type, the test tissue was exposed to AAH for 10 minutes but not irradiated during the latter five minutes; the AAH was washed out before agonist agents were added. That is, the same schedule as was used above was employed, but the preparations were not irradiated. In the second type of experiment with non-irradiated AAH, the compound was added to the bath 15 minutes before and remained present during the addition of agonists. The contralateral control tissues for these experiments received no treatment.

[2] = biological target: T1, histamine receptor (H1), isolated guinea pig vas deferens (Cavia porcellus, UniProt P31389); experiment: cell-based; set-up: Emax: dose or concentration left out as unconfirmed
T1 sequence (P31389 whole entry): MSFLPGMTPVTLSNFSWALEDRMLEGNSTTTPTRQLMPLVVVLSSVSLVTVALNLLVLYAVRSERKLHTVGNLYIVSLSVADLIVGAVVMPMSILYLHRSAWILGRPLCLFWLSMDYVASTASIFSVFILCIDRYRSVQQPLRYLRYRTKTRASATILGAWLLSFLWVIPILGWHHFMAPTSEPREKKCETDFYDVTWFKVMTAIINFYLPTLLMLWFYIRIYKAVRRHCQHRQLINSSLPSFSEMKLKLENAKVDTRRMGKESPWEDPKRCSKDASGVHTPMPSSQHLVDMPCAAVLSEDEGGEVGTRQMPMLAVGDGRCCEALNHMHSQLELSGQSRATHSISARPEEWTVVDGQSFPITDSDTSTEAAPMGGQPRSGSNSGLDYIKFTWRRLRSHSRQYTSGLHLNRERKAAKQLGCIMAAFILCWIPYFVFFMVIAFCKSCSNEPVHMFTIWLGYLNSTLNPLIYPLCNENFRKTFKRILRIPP
Procedure: Adult, albino guinea pigs (250-350 g; Hilltop Lab Animals, Scottdale, PA) were killed by a blow to the head. Vasa deferentia were removed, desheathed and mounted in conventional apparatus for the measurement of isometric contractile responses. Each tissue preparation was bathed in a separate glass, water-jacketed organ chamber containing modified Krebs-Henseleit solution (37° C.) for one hour prior to the beginning of the experiment. The tissues were washed every 15 minutes. Resting tension was 200 mg. Agonist agents were added to the bath with stepwise increases in concentration. The agonists were added at 10 minute intervals and the tissues were exposed to each concentration for 2 minutes; the tissues were washed twice with agonist-free Krebs-Henseleit solution, at 5 minute intervals, between agonist additions.
Effect of AAH after irradiation in the presence of histamine receptor ligands. […] AAH was then added to the test tissue, leaving the control exposed only to ligand, and after a 5-minute incubation, both the test and control tissues were irradiated for 5 minutes. Both tissues were washed twice with fresh Krebs-Henseleit solution to remove all agents, and concentration-response determinations were performed 10 minutes after irradiation.

[3] = system: smooth muscle of the guinea-pig vas deferens, MgATP responses; experiment: MgATP-induced contraction of isolated vas deferens (specificity of AAH); type: cell-based; details: 3×10^-5 M AAH
Procedure: as §1, §2, §3
(§5) Effect of AAH without photoactivation. Two types of experiments were performed with non-irradiated AAH. In the first type, the test tissue was exposed to AAH for 10 minutes but not irradiated during the latter five minutes; the AAH was washed out before agonist agents were added. […]

[4] = system: smooth muscle of the guinea-pig vas deferens, norepinephrine responses; experiment: Norepinephrine-induced contraction of isolated vas deferens (specificity of AAH); type: cell-based; details: 3×10^-5 M AAH
Procedure: as §1, §2, §3, §5

[5] = system: smooth muscle of the guinea-pig vas deferens, acetylcholine responses; experiment: Acetylcholine-induced contraction of isolated vas deferens (specificity of AAH); type: cell-based
Procedure: as §1, §2, §3, §4

[6] = Photolysis of AAH (absorbance decline at 266 nm); type: physicochemical
Procedure: FIG. 1 is spectra of 3×10^-5 M AAH (dissolved in modified Krebs-Henseleit solution) sampled before (solid line) and 5 minutes (dashed line) and 60 minutes (dotted line) after the beginning of irradiation. The reference cuvette contained modified Krebs-Henseleit solution. The inset illustrates the time-course of decline in absorbance a 266 nm; data points were obtained from scans performed after the irradiation intervals shown.
as §3

guinea pig vas deferens = experiment: Direct contractile effect on isolated vas deferens; type: cell-based; details: AAH in the concentrations used
Procedure: as §1

[7] = biological target: T1, histamine receptor (H1), isolated guinea pig vas deferens; experiment: Histamine-induced contraction of isolated vas deferens after photolysis and washout of AAH; type: cell-based; set-up: smooth muscle of the guinea-pig vas deferens; from tissue; host or cells: isolated, desheathed vas deferens of adult albino guinea pigs (Hilltop Lab Animals, Scottdale, PA)
Procedure: as §1, §2, §3

[8] = biological target: T1, histamine receptor (H1), isolated guinea pig vas deferens; experiment: Histamine-induced contraction of isolated vas deferens after incubation with non-irradiated AAH and washout; type: cell-based; set-up: smooth muscle of the guinea-pig vas deferens; from tissue; host or cells: isolated, desheathed vas deferens of adult albino guinea pigs (Hilltop Lab Animals, Scottdale, PA); details: 3×10^-5 M AAH, 10 min incubation, not photoactivated, washed out
Procedure: as §1, §2, §4

[9] = biological target: T1, histamine receptor (H1), isolated guinea pig vas deferens; experiment: Histamine-induced contraction of isolated vas deferens in the continual presence of non-irradiated AAH; type: cell-based; set-up: smooth muscle of the guinea-pig vas deferens; from tissue; host or cells: isolated, desheathed vas deferens of adult albino guinea pigs (Hilltop Lab Animals, Scottdale, PA)
Procedure: as §1, §2, §4

[10] = 3×10^-5 M AAH, non-irradiated, continually present
[11] = 3×10^-5 M AAH, photoactivated, washed out
[12] = non-irradiated, continually present
[13] = 3×10^-6 M AAH, photolyzed, washed out
[14] = 10^-5 M AAH, photolyzed, washed out

Compound: [Cl-].[K+] [KCl, reference compound]
- EC50 ([1]; irradiated control without AAH, read-out: EC50 of KCl, control): 20 mM
- EC50 ([1]; non-irradiated control without AAH, read-out: EC50 of KCl, control): 25 mM

Compound: NCCc1c[nH]cn1 [histamine, 2-(4-imidazolyl)ethylamine]
- protection against AAH-induced antagonism when present during photoactivation of AAH ([2]; 3×10^-4 M histamine with AAH, n=4): no protective effect
- Emax ([2]; read-out: response of the tissue, % of maximum response to histamine): 90 to 100%

Compound: [N-]=[N+]=Nc1ccc(NCCc2c[nH]cn2)c([N+](=O)[O-])c1 [AAH, 4(5)-[2-(4-azido-2-nitroanilino)ethyl]imidazole]
- effect on concentration-response relationship for KCl [1, 10]: no significant effect on concentration-response relationships
- effect on maximum responses or EC50's of KCl [1, 11]: no effect on the maximum responses or EC50's
- EC50 ([1]; Cavia porcellus, light or radiation study, read-out: EC50 of KCl, AAH, 3×10^-5 M AAH, non-irradiated, continually present): 15.3 mM
- EC50 ([1]; Cavia porcellus, light or radiation study, read-out: EC50 of KCl, AAH, 3×10^-5 M AAH, photoactivated, washed out): 19.5 mM
- shift of MgATP concentration-response curve to the left of control [3, 12]: 12.89 fold
- effect on maximum responses or EC50's of MgATP ([3]; photoactivated, washed out): no effect on the maximum responses or EC50's
- shift of norepinephrine concentration-response curve to the left of control [4, 12]: 5.50 fold
- effect on maximum responses or EC50's of NE ([4]; photoactivated, washed out): no effect on the maximum responses or EC50's
- effect on concentration-response relationship for ACh [5, 10]: no significant effect on concentration-response relationships
- effect on the maximum response to ACh [5, 11]: no effect on the maximum response to ACh
- shift of the ACh concentration-response curve to the right of control [5, 11]: 3.07 fold
- responses to acetylcholine after photolysis of AAH ([5]; photolyzed AAH): only slightly reduced
- half-life at 30 µM ([6]; 3×10^-5 M AAH, modified Krebs-Henseleit solution, tungsten-halogen lamp 650 W, read-out: t1/2 of first-order absorbance reduction at 266 nm caused by photolysis): 3.8 min
- percent of the maximum absorbance reduction produced by the 5-minute photoaffinity labeling period ([6]; 5 min irradiation, 266 nm): ca. 62%
- contraction upon addition to the organ bath (guinea pig vas deferens): did not cause a contraction
- reversal of antagonism by repeated washing ([7]; 3×10^-5 M AAH, photolyzed): not reversed by repeated washing
- effect on the response of the tissues to histamine ([7]; 3×10^-5 M AAH, photolyzed, washed out): abolished the response of the tissues to histamine
- effect on maximum response to histamine [7, 13]: small but significant decrease in the maximum response to histamine
- shift of the histamine concentration-response curve to the left of control [7, 13]: 1.89 fold
- effect on the response of the tissues to histamine [7, 14]: intermediate and irreversible antagonism
- shape of histamine concentration-response curve [7, 14]: "bell"-shaped
- concentration range over which antagonism by AAH occurred ([7]; photolyzed AAH): 10 fold
- residual effect on responses to histamine [8]: no residual effect on responses to histamine
- effect on the response to histamine [9, 10]: abolished the response to histamine
- shift of the histamine concentration-response curve to the left of control ([9]; 3×10^-6 M AAH, non-irradiated, continually present): 2.01 fold
- shape of histamine concentration-response curve ([9]; 10^-5 M AAH, non-irradiated, continually present): "bell-shaped" concentration-response curve
- concentration range over which antagonism by AAH was observed ([9]; non-irradiated AAH, continually present): 10 fold
- reversibility of antagonism of histamine by non-photolyzed AAH ([9]; not irradiated): reversible if not irradiated
